Test results as given in US20050043315A1, “Aminopyrimidine compounds, processes for their preparation and pharmaceutical compositions containing them” (priority 2002, published 2005).

Row | SMILES | melting point [°C]
1 | CC(C)n1nc(-c2c(-c3ccccc3)nc(N)nc2N(C)C)ccc1=O [Example 107, 6-[2-Amino-4-(dimethylamino)-6-phenyl-5-pyrimidinyl]-2-isopropyl-3(2H)-pyridazinone] | 293 to 296
2 | CC(C)n1nc(-c2cnc(NC(=O)C3CCCCC3)nc2-c2ccccc2)ccc1=O [Example 165, N-[5-(1-isopropyl-6-oxo-1,6-dihydro-3-pyridazinyl)-4-phenyl-2-pyrimidinyl]cyclohexanecarboxamide] | 195 to 198
3 | CC(C)n1nc(-c2cnc(NC(=O)c3cccnc3)nc2-c2ccccc2)ccc1=O [Example 175, N-[5-(1-isopropyl-6-oxo-1,6-dihydro-3-pyridazinyl)-4-phenyl-2-pyrimidinyl)nicotinamide] | 163 to 167
4 | CC(C)n1nc(-c2c(OCC(=O)OC(C)(C)C)nc(N)nc2-c2ccccc2)ccc1=O [Example 159, tert-butyl {[2-amino-5-(1-isopropyl-6-oxo-1,6-dihydro-3-pyridazinyl)-6-phenyl-4-pyrimidinyl]-oxy}acetate] | 160 to 162
5 | CCNc1nc(N)nc(-c2ccccc2)c1-c1ccc(=O)n(C(C)C)n1 [Example 108, 6-[2-Amino-4-(ethylamino)-6-phenyl-5-pyrimidinyl]-2-isopropyl-3(2H)-pyridazinone] | 208 to 209
6 | CC(C)n1nc(-c2cnc(NC(=O)c3ccc(Cl)cc3)nc2-c2ccccc2)ccc1=O [Example 171, 4-Chloro-N-[5-(1-isopropyl-6-oxo-1,6-dihydro-3-pyridazinyl)-4-phenyl-2-pyrimidinyl]benzamide] | 100
7 | CC(C)n1nc(-c2c(-c3ccccc3)nc(N)nc2N2CCNCC2)ccc1=O [Example 128, 6-[2-amino-4-phenyl-6-(1-piperazinyl)-5-pyrimidinyl]-2-isopropyl-3(2H)-pyridazinone] | 254 to 256
8 | CC(C)COc1cccc(-c2nc(N)ncc2-c2ccc(=O)n(C(C)C)n2)c1 [Example 202, 6-[2-Amino-4-(3-isobutoxyphenyl)-5-pyrimidinyl]-2-isopropyl-3(2H)-pyridazinone] | 137
9 | COC(=O)COc1nc(N)nc(-c2ccccc2)c1-c1ccc(=O)n(C(C)C)n1 [Example 89, methyl {[2-amino-5-(1-isopropyl-6-oxo-1,6-dihydro-3-pyridazinyl)-6-phenyl-4-pyrimidinyl]oxy}acetate] | 150 to 152.5
10 | CC(C)n1nc(-c2cnc(N)nc2-c2ccncc2)ccc1=O [Example 53, 6-[2-Amino-4-(4-pyridinyl)-5-pyrimidinyl]-2-isopropyl-3(2H)-pyridazinone] | 219
11 | COc1nc(N)nc(-c2ccc(F)cc2)c1-c1ccc(=O)n(C(C)C)n1 [Example 149, 6-[2-amino-4-(4-fluorophenyl)-6-methoxy-5-pyrimidinyl]-2-isopropyl-3(2H)-pyridazinone] | 207 to 209
12 | CC(C)n1nc(-c2c(OCCO)nc(N)nc2-c2ccccc2)ccc1=O [Example 86, 6-[2-Amino-4-(2-hydroxyethoxy)-6-phenyl-5-pyrimidinyl]-2-isopropyl-3(2H)-pyridazinone] | 182 to 183
13 | CCOc1nc(N)nc(-c2ccccc2)c1-c1ccc(=O)n(C(C)C)n1 [Example 81, 6-(2-amino-4-ethoxy-6-phenyl-5-pyrimidinyl)-2-isopropyl-3(2H)-pyridazinone] | 187.5 to 188.5
14 | CC(C)n1nc(-c2c(OCC(N)=O)nc(N)nc2-c2ccccc2)ccc1=O [Example 99, 2-{[2-amino-5-(1-isopropyl-6-oxo-1,6-dihydro-3-pyridazinyl)-6-phenyl-4-pyrimidinyl]oxy}acetamide] | 257 to 261
15 | CC(C)n1nc(-c2cnc(NC(=O)c3ccc(C(F)(F)F)cc3)nc2-c2ccccc2)ccc1=O [Example 174, N-[5-(1-isopropyl-6-oxo-1,6-dihydro-3-pyridazinyl)-4-phenyl-2-pyrimidinyl]-4-(trifluoromethyl)benzamide] | 160 to 163
16 | CC(C)n1nc(-c2cnc(N)nc2-c2ccccc2OCCN(C)C)ccc1=O [Example 218, 6-(2-Amino-4-{2-[2-(dimethylamino)ethoxy]phenyl}-5-pyrimidinyl)-2-isopropyl-3(2H)-pyridazinone] | 198
17 | CC(C)n1nc(-c2c(-c3ccccc3)nc(N)nc2N2CCN(C)CC2)ccc1=O [Example 129, 6-[2-Amino-4-(4-methyl-1-piperazinyl)-6-phenyl-5-pyrimidinyl]-2-isopropyl-3(2H)-pyridazinone] | 213 to 215
18 | COCC(=O)Nc1ncc(-c2ccc(=O)n(C(C)C)n2)c(-c2ccccc2)n1 [Example 166, N-[5-(1-isopropyl-6-oxo-1,6-dihydro-3-pyridazinyl)-4-phenyl-2-pyrimidinyl]-2-methoxyacetamide] | 94 to 97
19 | CCCC(=O)Nc1ncc(-c2ccc(=O)n(C(C)C)n2)c(-c2ccccc2)n1 [Example 164, N-[5-(1-isopropyl-6-oxo-1,6-dihydro-3-pyridazinyl)-4-phenyl-2-pyrimidinyl]butanamide] | 148 to 150
20 | Cn1nc(-c2c(NCc3ccccc3)nc(N)nc2-c2ccccc2)ccc1=O [Example 145, 6-[2-Amino-4-(benzylamino)-6-phenyl-5-pyrimidinyl]-2-methyl-3(2H)-pyridazinone] | > 250
21 | CC(C)n1nc(-c2c(-c3ccccc3)nc(N)nc2[S+](C)[O-])ccc1=O (stereo not shown) [Example 79, 6-[2-amino-4-(methylsulfinyl)-6-phenyl-5-pyrimidinyl]-2-isopropyl-3(2H)-pyridazinone] | 225 to 227
22 | CC(C)n1nc(-c2c(-c3ccccc3)nc(N)nc2N2CCCC2)ccc1=O [Example 125, 6-[2-Amino-4-phenyl-6-(1-pyrrolidinyl)-5-pyrimidinyl]-2-isopropyl-3(2H)-pyridazinone] | > 300
23 | CC(C)n1nc(-c2c(OCC(=O)N(C)C)nc(N)nc2-c2ccccc2)ccc1=O [Example 102, 2-{[2-Amino-5-(1-isopropyl-6-oxo-1,6-dihydro-3-pyridazinyl)-6-phenyl-4-pyrimidinyl]oxy}-N,N-dimethylacetamide] | 133 to 135.5
24 | CC(C)COc1ccccc1-c1nc(N)ncc1-c1ccc(=O)n(C(C)C)n1 [Example 201, 6-[2-Amino-4-(2-isobutoxyphenyl)-5-pyrimidinyl]-2-isopropyl-3(2H)-pyridazinone] | 189
25 | CCCCOc1ccccc1-c1nc(N)ncc1-c1ccc(=O)n(C(C)C)n1 [Example 198, 6-[2-Amino-4-(2-butoxyphenyl)-5-pyrimidinyl]-2-isopropyl-3(2H)-pyridazinone] | 149
26 | CC(C)n1nc(-c2cnc(N)nc2-c2cc(F)cc(F)c2)ccc1=O [Example 238, 6-[2-Amino-4-(3,5-difluorophenyl)-5-pyrimidinyl]-2-isopropyl-3(2H)-pyridazinone] | 234

Results, then the compound that gave them:

Row | melting point [°C] | SMILES
27 | 211 | COc1cccc(-c2nc(N)ncc2-c2ccc(=O)n(C(C)C)n2)c1 [Example 59, 6-[2-Amino-4-(3-methoxyphenyl)-5-pyrimidinyl]-2-isopropyl-3(2H)-pyridazinone]
28 | 123 | CC(C)n1nc(-c2cnc(N)nc2-c2cccc(OCCF)c2)ccc1=O [Example 211, 6-{2-Amino-4-[3-(2-fluoroethoxy)phenyl]-5-pyrimidinyl}-2-isopropyl-3(2H)-pyridazinone]
29 | 204 | CC(C)n1nc(-c2cnc(N)nc2-c2cccc(O)c2)ccc1=O (hydrate or solvate) [Example 187, 6-[2-Amino-4-(3-hydroxyphenyl)-5-pyrimidinyl]-2-isopropyl-3(2H)-pyridazinone]
30 | 300 | Nc1ncc(-c2ccc(=O)[nH]n2)c(-c2ccc(Cl)c(Cl)c2)n1 [Example 38, 6-[2-Amino-4-(3,4-dichlorophenyl)-5-pyrimidinyl]-3(2H)-pyridazinone]
31 | 208 | CC(C)n1nc(-c2cnc(N)nc2-c2ccc(F)c(F)c2)ccc1=O [Example 49, 6-[2-Amino-4-(3,4-difluorophenyl)-5-pyrimidinyl]-2-isopropyl-3(2H)-pyridazinone]
32 | 250 | Cn1nc(-c2cnc(N)nc2-c2ccc(O)cc2)ccc1=O (hydrate or solvate) [Example 223, 6-[2-Amino-4-(4-hydroxyphenyl)-5-pyrimidinyl)-2-methyl-3(2H)-pyridazinone]
33 | 204 | CCOc1ccc(-c2nc(N)ncc2-c2ccc(=O)n(C(C)C)n2)cc1 [Example 188, 6-[2-amino-4-(4-ethoxyphenyl)-5-pyrimidinyl]-2-isopropyl-3(2H)-pyridazinone]
34 | 180 to 181 | COCC(C)n1nc(-c2cnc(N)nc2-c2ccccc2)ccc1=O (stereo not shown) [Example 250, 6-(2-Amino-4-phenyl-5-pyrimidinyl)-2-(2-methoxy-1-methylethyl)-3(2H)-pyridazinone]
35 | 184 | CN(C)c1ncc(-c2ccc(=O)n(C)n2)c(-c2cccc(F)c2)n1 [Example 248, 6-[2-(Dimethylamino)-4-(3-fluorophenyl)-5-pyrimidinyl]-2-methyl-3(2H)-pyridazinone]
36 | 249 | Nc1ncc(-c2ccc(=O)[nH]n2)c(-c2cccc(F)c2)n1 [Example 28, 6-[2-Amino-4-(3-fluorophenyl)-5-pyrimidinyl]-3(2H)-pyridazinone]
37 | 134 | COc1cccc(-c2nc(N)ncc2-c2ccc(=O)[nH]n2)c1 [Example 43, 6-[2-Amino-4-(3-methoxyphenyl)-5-pyrimidinyl)-3(2H)-pyridazinone]
38 | 204 | CC(C)n1nc(-c2cnc(N)nc2-c2cccnc2)ccc1=O [Example 52, 6-[2-Amino-4-(3-pyridinyl)-5-pyrimidinyl]-2-isopropyl-3(2H)-pyridazinone]
39 | 111 | CC(C)n1nc(-c2cnc(N)nc2-c2cccc(OCCN(C)C)c2)ccc1=O [Example 219, 6-(2-Amino-4-{3-[2-(dimethylamino)ethoxy]phenyl}-5-pyrimidinyl)-2-isopropyl-3(2H)-pyridazinone]
40 | 142 | COc1ccc(-c2nc(N)ncc2-c2ccc(=O)[nH]n2)cc1 [Example 27, 6-[2-amino-4-(4-methoxyphenyl)-5-pyrimidinyl]-3(2H)-pyridazinone]
